Patent US11839639B2, “Inhibition of androgen receptor by extracts of medicinal herbs and compositions thereof” (YALE UNIVERSITY, priority 2017, dated 2023)
Entries after “also recorded” stand apart in the source; their conditions may differ.

Assays:
androgen receptor = androgen receptor (Homo sapiens, UniProt P10275); test: PSA promoter luciferase reporter assay, 22RV1 AR-luciferase reporter cells; type: cell-based; details: for anti-androgen receptor (AR) activity, luciferase reporter assay: 22RV1 AR-luciferase reporter cells, with DHT; for anti-androgen receptor activity, luciferase reporter assay: in present of DHT 10 nM
Sequence of androgen receptor (P10275 whole entry): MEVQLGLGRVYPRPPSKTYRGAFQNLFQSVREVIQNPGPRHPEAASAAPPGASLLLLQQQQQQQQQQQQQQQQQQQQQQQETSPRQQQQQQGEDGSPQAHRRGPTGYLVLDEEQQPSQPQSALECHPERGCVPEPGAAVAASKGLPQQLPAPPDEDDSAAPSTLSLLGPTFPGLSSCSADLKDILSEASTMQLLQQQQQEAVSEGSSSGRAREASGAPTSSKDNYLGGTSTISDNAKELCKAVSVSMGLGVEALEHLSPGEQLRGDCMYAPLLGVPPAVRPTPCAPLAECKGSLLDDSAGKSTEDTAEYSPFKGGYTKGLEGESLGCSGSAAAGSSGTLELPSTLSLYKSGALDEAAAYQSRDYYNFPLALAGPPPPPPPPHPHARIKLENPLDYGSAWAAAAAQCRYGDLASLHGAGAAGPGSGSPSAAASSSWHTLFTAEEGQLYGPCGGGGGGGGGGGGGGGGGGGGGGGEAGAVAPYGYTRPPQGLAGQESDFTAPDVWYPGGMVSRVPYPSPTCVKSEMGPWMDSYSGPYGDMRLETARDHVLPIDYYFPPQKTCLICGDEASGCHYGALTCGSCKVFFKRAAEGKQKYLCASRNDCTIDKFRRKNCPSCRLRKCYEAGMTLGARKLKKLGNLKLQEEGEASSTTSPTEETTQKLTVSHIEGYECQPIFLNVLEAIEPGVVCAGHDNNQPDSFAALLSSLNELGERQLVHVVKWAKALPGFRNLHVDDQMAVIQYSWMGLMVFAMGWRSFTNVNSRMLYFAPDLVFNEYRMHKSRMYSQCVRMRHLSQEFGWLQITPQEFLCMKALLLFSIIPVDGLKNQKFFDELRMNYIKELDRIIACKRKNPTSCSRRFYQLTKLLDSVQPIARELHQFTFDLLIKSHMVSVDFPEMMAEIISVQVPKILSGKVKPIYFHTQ
Protocol: 22RV1 prostate cancer cells were used in the screening study. 22RV1 cell lines were stably transfected with PSA promoter-PGL4.2 luciferase reporter. 25 nM) H T was used to induce androgen receptor for 24 h.
22RV1 androgen reporter cells were treated with herbal extracts at 30, 100, 300, and 1000 μg/ml for 24 h in a 37° C.-CO2 incubator with or without 25 nM DHT which was used androgen receptor activity. Cells were lysed using luciferase lysis buffer after which luciferase buffer with luciferin was added to generate luminescence. Luminescence was recorded using a luminescence microplate reader.

DU145 xenograft = DU145 xenograft tumor growth; type: in vivo, mouse; details: nude mice
Protocol: (§1) In another animal experiment, we compared the anti-prostate tumor growth effect of S6, F5, and PE1 (each 300 mg/kg bid) to enzalutamide (10 mg/kg qd) (targeting on AR) on LNCaP (androgen dependent) xenograft tumor and Du145 xenograft tumor in nude mice for two weeks.

[1] = system: LNCaP (androgen dependent) xenograft tumor; test: LNCaP xenograft tumor growth; type: in vivo, nude mice; details: S6, F5, PE1 each 300 mg/kg bid; enzalutamide 10 mg/kg qd; two weeks
Protocol: as §1

22RV1 xenograft = 22RV1 xenograft tumor growth; type: in vivo, mouse; details: gallic acid 23 mg/kg BID orally, nude mice
Source text: E5 may have higher selectively to inhibit prostate cancer with AR protein in vivo. I2 may have higher selectively to inhibit prostate cancer without AR protein expression in vivo.

Row | Compound | anti-androgen receptor (AR) activity, luciferase reporter assay (androgen receptor) | anti-androgen receptor activity, luciferase reporter assay (androgen receptor) | other results
1 | Oc1cc(O)c2c(c1)O[C@H](c1cc(O)c(O)c(O)c1)[C@H](O)C2 [Epigallocatechin] | showed inhibition; also recorded: different potency on inhibiting AR | highest potency against AR | –
2 | CNC(=O)c1ccc(N2C(=S)N(c3ccc(C#N)c(C(F)(F)F)c3)C(=O)C2(C)C)cc1F [enzalutamide, reference compound] | – | – | growth of Du145 xenograft tumor (DU145 xenograft; S6, F5, PE1 each 300 mg/kg bid, enzalutamide 10 mg/kg qd, two weeks): not Du145 tumors; growth of LNCaP xenograft tumor [1]: effectively inhibited
3 | O=C(O)c1cc(O)c(O)c(O)c1 [gallic acid] | – | – | in vivo anti-tumor activity, 22RV1 tumor (22RV1 xenograft): exhibit in vivo anti-tumor activity; in vivo anti-tumor activity, Du145 tumor (DU145 xenograft; gallic acid 23 mg/kg BID orally): exhibit in vivo anti-tumor activity
4 | Oc1cc(O)c2c(c1)O[C@H](c1cc(O)c(O)c(O)c1)[C@@H](O)C2 [gallocatechin] | showed inhibition; also recorded: different potency on inhibiting AR | found to have anti-androgen receptor activity | –
5 | O=C(O)c1cc(O)c2c(c1)[C@H]([C@H]1c3cc(CO)cc(O)c3C(=O)c3c(O[C@@H]4O[C@H](CO)[C@@H](O)[C@H](O)[C@H]4O)cccc31)c1cccc(O[C@@H]3O[C@H](CO)[C@@H](O)[C@H](O)[C@H]3O)c1C2=O [sennoside C] | no | – | –
6 | O=C(O)c1cc(O)c2c(c1)[C@H]([C@@H]1c3cc(CO)cc(O)c3C(=O)c3c(O[C@@H]4O[C@H](CO)[C@@H](O)[C@H](O)[C@H]4O)cccc31)c1cccc(O[C@@H]3O[C@H](CO)[C@@H](O)[C@H](O)[C@H]3O)c1C2=O [sennoside D] | no | – | –
